One data set concerns DC-3F/ADII cells. Kind of data set: cells. As to conditions: Mesocricetus auratus, DC3F.
A further data set relates to P388/DX tumor. Kind of data set: Combination therapy of adriamycin & 5-N-acetyl-ardeemin or verapamil in B6D2F1 mice bearing P388/DX tumor.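 As to all read-outs here: male BDF mice implanted intraperitoneally with P388/DX cells, 10^6 per mouse, dosed from day 1 on a QDX4, QWX2 schedule, five mice per dose group.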 The conditions noted are these: for Days survived: individual mice 1-5, listed as Adr.
A further data set relates to DC-3F hamster lung cells. Kind of data set: Cytotoxicity toward DC-3F hamster lung cells. The conditions noted are these: Mesocricetus auratus, DC3F, read-out: IC50 for inhibiting cell growth, Table 7, DC-3F.
Another data set deals with P388/DX leukemic cells. Kind of data set: Drug combination of adriamycin and 5-N-acetyl-ardeemin against P388/DX cell growth (XTT). The class given is cell-based. As to conditions: drug alone. The source says:
| microplate, 25,000 cell/well, N = 2.
Background: Tetrazolium assays rely on reduction of a dye to a coloured formazan, in cell work by metabolically active cells.

A further data set relates to P388/DX. Kind of data set: Survival time evaluation for BDF mice bearing P388/DX. The conditions noted are these: for survival time: individual mice.
The next data set deals with P388/0 tumor. Kind of data set: Combination therapy of adriamycin, vinblastine and des-Me-N-acetyl-ardeemin in B6D2F1 mice bearing P388/0 tumor. The conditions noted are these: for Days survived: individual mice 1-5.
The next data set has as its system P388/O tumor. Kind of data set: Combination therapy of adriamycin & 5-N-acetyl-ardeemin or verapamil in B6D2F1 mice bearing P388/O tumor.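 As to all read-outs here: male BDF mice carrying P388/O given intraperitoneally, dosing begun on day 1 on a QDX4, QWX2 schedule, five animals per dose level.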 The conditions noted are these: for Days survived: individual mice 1-5, listed as Adr.
The test system of the next data set is P388/0. Kind of data set: Survival time evaluation for BDF mice bearing P388/0. The conditions noted are these: for survival time: individual mice.
For another data set, the system named is P388 leukemic cells. Kind of data set: Drug combination of adriamycin and 5-N-acetyl-ardeemin against P388 cell growth (XTT). The conditions noted are these: Mus musculus, P388, drug alone.
The next data set concerns cultured macrophages. As to conditions: read-out: IC50, inhibition of cholesterol ester formation; cited from earlier work.
The target in data set [1] is acyl CoA:cholesterol acyltransferase (ACAT). As to conditions: read-out: Ki (with respect to oleoyl-CoA); cited from earlier work.
A further data set relates to CCRF-CEM/VBL cells. Kind of data set: IC50 of vinblastine in CCRF-CEM/VBL with/without MDR reversing agent. The class given is cell-based, human.
Data set [2] concerns vinblastine-resistant CCRF-CEM cells (CCRF-CEM/VBL100). Kind of data set: Two drug combination study of vinblastine and 5-N-acetylardeemin on vinblastine-resistant CCRF-CEM, 72 hr, XTT assay. More on the design: dose of drug at FA (drug alone): unit not given here. The data set is classed as cell-based, human. As to conditions: for Dose reduction index / dose of drug at FA (drug alone): Table 3.

For data set [3], the system named is CCRF-CEM cells. Kind of data set: Two drug combination study of vinblastine and 5-N-acetylardeemin on CCRF-CEM, 72 hr, XTT assay. The data set is classed as cell-based. The conditions noted are these: Homo sapiens, Table 2, drug alone, read-out: Dm (median-effect concentration). The text has this: CCRF-CEM Cell Line at 72-HR Exposure Time. Based on XTT
Data set [4] relates to CCRF-CEM/VM-1 cells. As to conditions: IC50 of VBL, CCRF-CEM/VM-1 to CCRF-CEM.
Data set [5] has as its system CCRF-CEM cells. Kind of data set: Cytotoxicity / growth inhibition of CCRF-CEM leukemic cells. As to conditions: Homo sapiens, wild type CCRF-CEM.
For data set [6], the system named is vinblastine-resistant CCRF-CEM cells (CCRF-CEM/VBL100). Kind of data set: Two drug combination study of vinblastine and 5-N-acetylardeemin on vinblastine-resistant CCRF-CEM, 72 hr, XTT assay. The data set is classed as cell-based, human. The source says: Vinblastine-resistant CCRF-CEM Cell Line at 72-HR Exposure Time.
Based on XTT Assay. (large-scale study)

Data set [7] has as its system CCRF-CEM/VM-1 cells. Kind of data set: cells. The conditions noted are these: Homo sapiens, read-out: IC50 of VBL in the presence of reversing agent (C).
For data set [8], the system named is CCRF-CEM cells. Kind of data set: IC50 of vinblastine in CCRF-CEM with/without MDR reversing agent. The data set is classed as cell-based. The conditions noted are these: Homo sapiens, agent concentration added given in Table 6B, read-out: IC50 of VBL in the presence of reversing agent (A).
The test system of the next data set is CCRF-CEM/VBL100 cells. As to conditions: human, ccrf-cem/vbl100 vs ccrf-cem.
Another data set relates to HCT116(VM)46 cells. Kind of data set: Cytotoxicity (XTT, 72 hr) in multidrug resistant HCT116(VM)46 cells. The class given is cell-based. The conditions noted are these: IC50 HCT116(VM)46 / HCT116; 4320 min. How it is done: All drug exposures were for 72 hr and cytotoxicity was measured by XTT tetrazolium dye assay.

pIC50, pKi: −log10 of the molar value. Several values for one entry are separate records, joined by “and”; a condition that tells them apart may be missing. Equal values may be shown once. Read-outs that look alike come from different tables or passages of the source.

Consider 4 compounds from US6147076A, “Analogues of N-acetylardeemin, method of preparation and uses thereof” (priority 1996, dated 2000).

Excerpt for P388 leukemic cells: microplate, 15,000 cell/well, N = 2. Platting cells on day 1, add drugs o
day 2 and XTT assay on day 5.
Description for P388/0 tumor: ^a Male BDF mice were inoculated with P388/O, 10^6 cell/mouse,
i.p. on day 0; and started treatment on day 1, i.p., Q5Dx5, besides mice
with dose VBL 3.0 and VBL 3.0 mg/kg + DMNAA 50 mg/kg, only one injection
i.p., on day 1. There were five mice at every dose and ten in the control
Excerpt for P388/DX tumor: ^a Male BDF mice were inoculated P388/DX, 10^6 cells/mouse, i.p.
starting day 1, QDX4, QWX2. There were five mice at every dose and ten
Excerpt for P388/O tumor: ^a Male BDF mice were inoculated P388/O, 10^6 cells/mouse, i.p. a
starting day 1, QDX4, QWX2.

For `COc1cccc2c1C(=O)c1c(O)c3c(c(O)c1C2=O)C[C@@](O)(C(=O)CO)C[C@@H]3O[C@H]1C[C@H](N)[C@H](O)[C@H](C)O1` [Adriamycin, adriamycin], the pIC50 in the data set with DC-3F/ADII cells (read-out: IC50 for inhibiting cell growth, Table 7, DC-3F/SDII) is 6.42; in the data set with DC-3F hamster lung cells, 7.52; with P388/DX leukemic cells it was 5.67; in the data set on P388 leukemic cells it was 6.64. The “% ILS” value is listed as “+49%” with P388/DX tumor (Adr. 0.5 mg/kg); “+75%” in the data set on P388/DX tumor (Adr. 1.0 mg/kg); “+130%” in the data set on P388/DX tumor (Adr. 3.0 mg/kg); 24% in the data set with P388/DX (adriamycin 0.333 mg/kg); 37% with P388/DX (adriamycin 1.0 mg/kg); 48% in the data set on P388/DX (adriamycin 3.0 mg/kg). Further, the “% ILS” value with P388/0 tumor (Adr. 3.0 mg/kg) is recorded as “+63%”; in the data set with P388/0 tumor (Adr. 5.0 mg/kg) it was “+81%”; in the data set with P388/O tumor (Adr 0.5 mg/kg) it was “+128%”; with P388/O tumor (Adr 1.0 mg/kg) it was “+152%”; with P388/O tumor (Adr 2.0 mg/kg), “+178%”; in the data set on P388/O tumor (Adr 3.0 mg/kg), “+181%”. Besides, the “% ILS” value is on record as 85% with P388/0 (adriamycin 0.333 mg/kg), 129% with P388/0 (adriamycin 1.0 mg/kg) and 145% in the data set on P388/0 (adriamycin 3.0 mg/kg). The MST was determined as 11.3 days in the data set with P388/DX tumor (Adr. 0.5 mg/kg); 13.25 days in the data set with P388/DX tumor (Adr. 1.0 mg/kg); 15.55 days in the data set on P388/DX tumor (Adr. 2.0 mg/kg); 17.4 days with P388/DX tumor (Adr. 3.0 mg/kg); 9.0 with P388/DX (adriamycin 0.333 mg/kg); 9.75 in the data set with P388/DX (adriamycin 1.0 mg/kg). Further, the MST with P388/DX (adriamycin 3.0 mg/kg) worked out at 10.75; in the data set with P388/0 tumor (Adr. 3.0 mg/kg), 13.60 days; with P388/0 tumor (Adr. 5.0 mg/kg), 15.10 days; in the data set with P388/O tumor (Adr 0.5 mg/kg), 17.3 days; with P388/O tumor (Adr 1.0 mg/kg) it was 19.1 days; in the data set on P388/O tumor (Adr 2.0 mg/kg) it was 21.1 days. The MST with P388/O tumor (Adr 3.0 mg/kg) was found to be 19.8 days; in the data set with P388/0 (adriamycin 0.333 mg/kg), 13.75; with P388/0 (adriamycin 1.0 mg/kg) it was 17.0; with P388/0 (adriamycin 3.0 mg/kg), 18.19. Also, the Days survived in the data set on P388/DX tumor (Adr. 0.5 mg/kg) was 7.5 days and 10.5 days and 12.25 days and 14.0 days; in the data set with P388/DX tumor (Adr. 1.0 mg/kg), 11.5 days and 12.25 days and 13.25 days and 16.0 days; with P388/DX tumor (Adr. 2.0 mg/kg) it was 14.0 days and 15.0 days and 15.25 days and 16.5 days and 17.0 days; with P388/DX tumor (Adr. 3.0 mg/kg), 14.0 days and 17.5 days and 21.0 days; in the data set on P388/0 tumor (Adr. 3.0 mg/kg, listed as Adr.), 10.5 days and 13.5 days and 14.5 days and 15.0 days; in the data set on P388/0 tumor (Adr. 5.0 mg/kg, listed as Adr.) it was 10.5 days and 14.0 days and 16.0 days and 17.0 days and 18.0 days. The Days survived was 15.5 days and 16.0 days and 17.0 days and 18.0 days and 20.0 days with P388/O tumor (Adr 0.5 mg/kg); 16.0 days and 19.0 days and 20.5 days and 21.0 days in the data set on P388/O tumor (Adr 1.0 mg/kg); 19.0 days and 20.5 days and 21.0 days and 22.5 days in the data set with P388/O tumor (Adr 2.0 mg/kg); 12.5 days and 16.0 days and 20.5 days and 24.6 days and 26.5 days in the data set on P388/O tumor (Adr 3.0 mg/kg). The deaths of toxicity result is on record as “Two mice died of toxicity of drugs” in the data set on P388/DX tumor (Adr. 3.0 mg/kg, day 14); “Two mice died of toxicity of drugs” in the data set on P388/O tumor (Adr 3.0 mg/kg, day 12.5 and 15). The survival time with P388/DX (adriamycin 0.333 mg/kg) is 8.0 and 8.5 and 9.5 and 10.0; in the data set on P388/DX (adriamycin 1.0 mg/kg), 9.0 and 10.0 and 10.25 and 10.5; with P388/DX (adriamycin 3.0 mg/kg), 10.0 and 11.5 and 12.25; in the data set on P388/0 (adriamycin 0.333 mg/kg), 12.25 and 13.0 and 14.25 and 15.5; in the data set with P388/0 (adriamycin 1.0 mg/kg), 14.25 and 15.5 and 18.0 and 20.25; with P388/0 (adriamycin 3.0 mg/kg) it was 16.0 and 17.25 and 19.25 and 20.25.
Consider `C=CC(C)(C)C12Nc3ccccc3C1(O)CC1C(=O)N3C(CC4(O)c5ccccc5NC34C(C)(C)C=C)C(=O)N12` (stereo not shown) [Gypsetin], for which the figures for the pIC50 in the data set on DC-3F/ADII cells (read-out: IC50 for inhibiting cell growth), with cultured macrophages and in the data set on DC-3F hamster lung cells were 5.65, 6.19 and 5.42, respectively. Further, the pKi in data set [1] is 5.26.
In the case of `CC[C@]1(O)C[C@@H]2CN(CCc3c([nH]c4ccccc34)[C@@](C(=O)OC)(c3cc4c(cc3OC)N(C)[C@H]3[C@@](O)(C(=O)OC)[C@H](OC(C)=O)[C@]5(CC)C=CCN6CC[C@]43[C@@H]65)C2)C1` [Vinblastine], the pIC50 in the data set on CCRF-CEM/VBL cells (Homo sapiens, CCRF-CEM, agent concentration added given in Table 6B, read-out: IC50 of VBL in the presence of reversing agent (B)) is 6.08; in [2] (Homo sapiens, CCRF-CEM, Table 3, drug alone, read-out: Dm (median-effect concentration)), 6.43; in the data set on CCRF-CEM cells [3], 8.77; in the data set on CCRF-CEM cells [5], 8.77; in data set [6] (Homo sapiens, CCRF-CEM, Table 4 (large-scale study), drug alone, read-out: Dm (median-effect concentration)), 6.41; with CCRF-CEM/VM-1 cells [7], 9.35. In addition, in the data set on CCRF-CEM cells [8], the pIC50 is 9.08. For the same compound, the “(b)/(a)” value in the data set with CCRF-CEM/VBL cells (IC50 of VBL, CCRF-CEM/VBL to CCRF-CEM) was 761. Moreover, the results for the Dose reduction index in data set [2] (FA .9843), in data set [2] (FA .9861) and in [2] (FA .9898) were 41.85, 22.03 and 10.05, respectively. Moreover, the “dose of drug at FA (drug alone)” value in [2] (FA .9843) is 2.092; in data set [2] (FA .9861) it was 2.203; in [2] (FA .9898) it was 2.512. The “(C)/(A)” value in the data set with CCRF-CEM/VM-1 cells [4] amounted to 0.54. Also, the “dose reduction in combination” value in [6] (1:2000 ratio, at 98.4% inhibition) is 41 fold. For the same compound, the “% ILS” value in the data set with P388/0 tumor (VBL 3.0 mg/kg, one injection) was “+64%”. Moreover, in the data set on P388/0 tumor (VBL 3.0 mg/kg, one injection, listed as VBL), the Days survived was 5.0 days and 6.0 days and 9.5 days and 15.5 days and 16.0 days. Besides, the MST with P388/0 tumor (VBL 3.0 mg/kg, one injection, toxic deaths excluded) came out at 13.67 days. Also, in the data set with P388/0 tumor (VBL 3.0 mg/kg, day 5 and 6), the deaths of toxicity result was “Two mice died of toxicity of drug”. In addition, in the data set with CCRF-CEM/VBL100 cells, the “resistance of CCRF-CEM/VBL100 compared with CCRF-CEM” value was 220 fold.
Consider `CC(=O)O[C@H]1C(=O)[C@@]2(C)[C@H]([C@H](OC(=O)c3ccccc3)[C@]3(O)C[C@H](OC(=O)[C@H](O)[C@@H](NC(=O)c4ccccc4)c4ccccc4)C(C)=C1C3(C)C)[C@]1(OC(C)=O)CO[C@@H]1C[C@@H]2O` [paclitaxel], for which the R/S ratio in the data set on HCT116(VM)46 cells was 132.

The pKi is −log10 of the Ki, conventionally taken in molar units.
